Reference: patent US20120270237A9, “METHODS FOR THE IDENTIFICATION OF KINASE INTERACTING MOLECULES AND FOR THE PURIFICATION OF KINASE PROTEINS” (Cellzone AG, priority 2009, published 2012)

How the values were obtained:
Test in all cases: Kinobeads competition binding, HeLa Placenta lysate mix
Set-up in all cases: endogenous in cells
Details in all cases: 10 μM free compound
TYK2 = TYK2 (Homo sapiens, UniProt P29597)
Outline: (§1)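 Competition pulldown: free compound at 10 μM competes with an immobilized-compound affinity matrix for lysate proteins. Captured proteins undergo SDS-PAGE and in-gel tryptic digestion, then iTRAQ-labeled LC-MS/MS quantification relative to a DMSO-treated aliquot.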

CDC2 = CDC2 (Homo sapiens, UniProt P06493)
CDC2, sequence (P06493 whole entry): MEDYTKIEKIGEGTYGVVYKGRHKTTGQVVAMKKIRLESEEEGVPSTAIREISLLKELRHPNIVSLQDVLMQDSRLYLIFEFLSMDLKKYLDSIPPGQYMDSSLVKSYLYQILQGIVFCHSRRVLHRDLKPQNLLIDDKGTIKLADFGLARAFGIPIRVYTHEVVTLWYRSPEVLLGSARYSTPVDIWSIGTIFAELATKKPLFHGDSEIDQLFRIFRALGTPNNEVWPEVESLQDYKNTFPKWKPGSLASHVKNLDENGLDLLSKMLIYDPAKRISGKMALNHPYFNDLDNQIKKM
Outline: as §1

IRE1 = IRE1 (Homo sapiens, UniProt O75460)
IRE1, sequence (O75460 19-977): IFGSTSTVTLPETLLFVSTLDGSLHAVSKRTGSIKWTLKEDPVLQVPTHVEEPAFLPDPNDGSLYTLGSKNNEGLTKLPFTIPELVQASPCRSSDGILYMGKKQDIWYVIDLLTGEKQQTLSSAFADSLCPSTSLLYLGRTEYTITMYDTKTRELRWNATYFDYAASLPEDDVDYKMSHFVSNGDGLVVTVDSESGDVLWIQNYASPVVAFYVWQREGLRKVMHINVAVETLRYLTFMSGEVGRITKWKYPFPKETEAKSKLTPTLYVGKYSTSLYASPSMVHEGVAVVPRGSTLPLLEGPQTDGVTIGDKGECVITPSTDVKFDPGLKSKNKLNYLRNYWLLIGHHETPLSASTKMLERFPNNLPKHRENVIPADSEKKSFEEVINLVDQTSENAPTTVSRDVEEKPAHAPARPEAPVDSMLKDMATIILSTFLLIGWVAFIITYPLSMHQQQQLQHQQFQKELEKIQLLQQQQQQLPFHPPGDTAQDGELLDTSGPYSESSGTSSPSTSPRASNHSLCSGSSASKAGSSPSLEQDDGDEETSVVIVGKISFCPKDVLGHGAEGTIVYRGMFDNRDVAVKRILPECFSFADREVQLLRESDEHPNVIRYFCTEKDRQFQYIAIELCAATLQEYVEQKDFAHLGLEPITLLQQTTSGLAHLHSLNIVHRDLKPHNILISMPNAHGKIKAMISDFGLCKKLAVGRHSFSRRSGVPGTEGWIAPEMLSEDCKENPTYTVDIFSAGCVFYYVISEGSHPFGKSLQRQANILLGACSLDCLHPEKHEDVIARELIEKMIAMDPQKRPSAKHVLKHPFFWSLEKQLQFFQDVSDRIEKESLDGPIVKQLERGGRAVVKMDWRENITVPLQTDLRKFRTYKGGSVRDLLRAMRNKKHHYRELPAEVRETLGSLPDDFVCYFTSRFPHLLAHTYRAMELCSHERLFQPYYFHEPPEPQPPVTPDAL
Outline: as §1

MAP3K5 = target: T1, MAP3K5 (Homo sapiens, UniProt Q99683)
T1 sequence (Q99683 1-1374): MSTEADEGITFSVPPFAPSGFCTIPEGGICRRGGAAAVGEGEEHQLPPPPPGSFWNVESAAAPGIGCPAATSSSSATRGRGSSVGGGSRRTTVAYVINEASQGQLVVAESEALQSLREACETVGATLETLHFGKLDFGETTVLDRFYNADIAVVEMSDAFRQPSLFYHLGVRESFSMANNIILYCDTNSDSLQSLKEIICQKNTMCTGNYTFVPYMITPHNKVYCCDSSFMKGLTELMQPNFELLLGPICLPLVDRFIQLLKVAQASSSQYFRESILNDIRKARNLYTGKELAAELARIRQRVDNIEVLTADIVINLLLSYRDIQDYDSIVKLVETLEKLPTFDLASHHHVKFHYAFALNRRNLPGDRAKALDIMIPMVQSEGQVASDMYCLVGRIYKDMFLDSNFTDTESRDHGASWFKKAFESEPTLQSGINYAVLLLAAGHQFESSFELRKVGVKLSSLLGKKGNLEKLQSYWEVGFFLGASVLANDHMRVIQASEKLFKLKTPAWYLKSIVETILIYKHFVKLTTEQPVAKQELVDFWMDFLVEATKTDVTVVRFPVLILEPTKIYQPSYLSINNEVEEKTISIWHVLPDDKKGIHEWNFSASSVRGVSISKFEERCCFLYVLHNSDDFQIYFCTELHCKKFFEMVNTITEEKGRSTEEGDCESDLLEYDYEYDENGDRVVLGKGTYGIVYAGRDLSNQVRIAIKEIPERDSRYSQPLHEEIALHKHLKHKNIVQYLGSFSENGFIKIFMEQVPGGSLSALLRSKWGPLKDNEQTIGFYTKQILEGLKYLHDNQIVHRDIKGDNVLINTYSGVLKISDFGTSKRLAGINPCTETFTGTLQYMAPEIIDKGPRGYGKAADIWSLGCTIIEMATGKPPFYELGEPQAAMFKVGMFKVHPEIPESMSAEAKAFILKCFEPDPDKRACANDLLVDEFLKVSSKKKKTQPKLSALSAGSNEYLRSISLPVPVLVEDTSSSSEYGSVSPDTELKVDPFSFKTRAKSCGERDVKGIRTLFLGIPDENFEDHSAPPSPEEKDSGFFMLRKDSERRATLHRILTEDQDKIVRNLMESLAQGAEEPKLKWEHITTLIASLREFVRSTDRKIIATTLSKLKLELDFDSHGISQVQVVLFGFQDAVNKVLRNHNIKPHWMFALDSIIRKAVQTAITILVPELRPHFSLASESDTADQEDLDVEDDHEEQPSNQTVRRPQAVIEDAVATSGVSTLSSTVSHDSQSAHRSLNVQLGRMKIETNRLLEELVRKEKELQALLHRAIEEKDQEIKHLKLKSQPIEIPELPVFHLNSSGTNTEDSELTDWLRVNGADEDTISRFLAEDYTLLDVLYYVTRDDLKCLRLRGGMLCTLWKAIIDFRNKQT
Outline: as §1

IKKe = target: T2, IKKe (Homo sapiens, UniProt Q14164)
T2 sequence (Q14164 1-716): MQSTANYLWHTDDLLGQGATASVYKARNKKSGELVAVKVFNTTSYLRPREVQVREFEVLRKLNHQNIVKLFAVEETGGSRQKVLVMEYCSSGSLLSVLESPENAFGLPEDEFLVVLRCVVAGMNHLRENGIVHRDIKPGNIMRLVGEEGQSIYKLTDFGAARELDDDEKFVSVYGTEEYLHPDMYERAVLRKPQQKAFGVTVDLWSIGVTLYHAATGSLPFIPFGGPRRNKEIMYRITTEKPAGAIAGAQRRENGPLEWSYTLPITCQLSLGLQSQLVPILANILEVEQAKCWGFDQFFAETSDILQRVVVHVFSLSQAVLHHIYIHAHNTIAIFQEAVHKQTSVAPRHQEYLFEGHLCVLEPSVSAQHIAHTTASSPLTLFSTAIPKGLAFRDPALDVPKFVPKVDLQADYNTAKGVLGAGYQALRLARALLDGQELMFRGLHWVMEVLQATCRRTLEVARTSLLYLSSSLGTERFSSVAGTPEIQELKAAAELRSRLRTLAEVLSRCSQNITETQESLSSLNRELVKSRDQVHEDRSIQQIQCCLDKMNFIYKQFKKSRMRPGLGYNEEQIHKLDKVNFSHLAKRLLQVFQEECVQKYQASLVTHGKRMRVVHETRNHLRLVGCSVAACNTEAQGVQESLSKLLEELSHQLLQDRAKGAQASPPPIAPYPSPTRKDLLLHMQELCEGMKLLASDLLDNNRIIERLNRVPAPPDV
Outline: as §1

PAK4 = PAK4 (Homo sapiens, UniProt O96013)
PAK4, sequence (O96013 whole entry): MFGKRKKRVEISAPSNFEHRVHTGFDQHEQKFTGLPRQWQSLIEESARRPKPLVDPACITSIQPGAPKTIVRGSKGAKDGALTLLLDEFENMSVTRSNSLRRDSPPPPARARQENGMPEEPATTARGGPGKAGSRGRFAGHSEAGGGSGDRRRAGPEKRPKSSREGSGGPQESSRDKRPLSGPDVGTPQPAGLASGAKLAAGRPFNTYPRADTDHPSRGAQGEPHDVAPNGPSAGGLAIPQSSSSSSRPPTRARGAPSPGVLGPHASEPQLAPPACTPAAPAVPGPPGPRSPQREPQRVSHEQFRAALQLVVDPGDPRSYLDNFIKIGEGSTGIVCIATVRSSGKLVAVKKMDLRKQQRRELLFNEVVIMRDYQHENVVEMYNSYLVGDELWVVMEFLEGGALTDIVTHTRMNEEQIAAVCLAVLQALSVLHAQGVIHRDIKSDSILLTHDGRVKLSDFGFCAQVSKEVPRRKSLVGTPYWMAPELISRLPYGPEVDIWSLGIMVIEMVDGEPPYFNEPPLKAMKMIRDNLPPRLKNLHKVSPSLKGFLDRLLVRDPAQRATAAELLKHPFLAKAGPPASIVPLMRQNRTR
Outline: as §1

BIKE = BIKE (Homo sapiens, UniProt Q9NSY1)
BIKE, sequence (Q9NSY1 whole entry): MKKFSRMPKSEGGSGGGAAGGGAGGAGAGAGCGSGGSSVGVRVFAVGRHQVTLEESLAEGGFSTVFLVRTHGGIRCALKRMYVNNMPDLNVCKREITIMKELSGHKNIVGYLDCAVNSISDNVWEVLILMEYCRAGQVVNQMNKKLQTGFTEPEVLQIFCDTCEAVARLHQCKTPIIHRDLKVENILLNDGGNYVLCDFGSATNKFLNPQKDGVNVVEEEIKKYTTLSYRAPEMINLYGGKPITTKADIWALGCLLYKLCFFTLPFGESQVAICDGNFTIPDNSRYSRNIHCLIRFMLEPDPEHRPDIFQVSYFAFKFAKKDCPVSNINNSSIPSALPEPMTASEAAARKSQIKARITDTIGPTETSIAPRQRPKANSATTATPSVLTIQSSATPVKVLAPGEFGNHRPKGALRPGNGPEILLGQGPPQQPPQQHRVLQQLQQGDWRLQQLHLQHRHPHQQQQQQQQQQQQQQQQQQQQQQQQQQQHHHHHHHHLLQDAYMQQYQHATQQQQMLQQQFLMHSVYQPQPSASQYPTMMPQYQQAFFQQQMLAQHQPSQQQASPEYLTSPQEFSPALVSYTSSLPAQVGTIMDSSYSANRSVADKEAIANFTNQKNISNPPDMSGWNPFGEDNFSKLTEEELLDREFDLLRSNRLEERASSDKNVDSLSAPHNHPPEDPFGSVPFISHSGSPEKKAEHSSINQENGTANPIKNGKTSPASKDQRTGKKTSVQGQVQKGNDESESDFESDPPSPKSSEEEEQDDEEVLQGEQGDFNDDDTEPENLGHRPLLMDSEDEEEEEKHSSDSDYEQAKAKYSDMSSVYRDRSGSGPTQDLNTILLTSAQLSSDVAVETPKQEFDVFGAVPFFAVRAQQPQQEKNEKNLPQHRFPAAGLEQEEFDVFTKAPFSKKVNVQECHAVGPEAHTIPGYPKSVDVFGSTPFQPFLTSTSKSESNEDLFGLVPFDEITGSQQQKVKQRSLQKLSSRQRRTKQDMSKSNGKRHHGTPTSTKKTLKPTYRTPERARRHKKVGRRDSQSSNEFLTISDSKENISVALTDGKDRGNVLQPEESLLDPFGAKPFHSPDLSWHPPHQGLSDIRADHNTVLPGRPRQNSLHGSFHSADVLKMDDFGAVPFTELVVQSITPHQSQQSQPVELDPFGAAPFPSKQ
Outline: as §1

TYK2, sequence (P29597 whole entry): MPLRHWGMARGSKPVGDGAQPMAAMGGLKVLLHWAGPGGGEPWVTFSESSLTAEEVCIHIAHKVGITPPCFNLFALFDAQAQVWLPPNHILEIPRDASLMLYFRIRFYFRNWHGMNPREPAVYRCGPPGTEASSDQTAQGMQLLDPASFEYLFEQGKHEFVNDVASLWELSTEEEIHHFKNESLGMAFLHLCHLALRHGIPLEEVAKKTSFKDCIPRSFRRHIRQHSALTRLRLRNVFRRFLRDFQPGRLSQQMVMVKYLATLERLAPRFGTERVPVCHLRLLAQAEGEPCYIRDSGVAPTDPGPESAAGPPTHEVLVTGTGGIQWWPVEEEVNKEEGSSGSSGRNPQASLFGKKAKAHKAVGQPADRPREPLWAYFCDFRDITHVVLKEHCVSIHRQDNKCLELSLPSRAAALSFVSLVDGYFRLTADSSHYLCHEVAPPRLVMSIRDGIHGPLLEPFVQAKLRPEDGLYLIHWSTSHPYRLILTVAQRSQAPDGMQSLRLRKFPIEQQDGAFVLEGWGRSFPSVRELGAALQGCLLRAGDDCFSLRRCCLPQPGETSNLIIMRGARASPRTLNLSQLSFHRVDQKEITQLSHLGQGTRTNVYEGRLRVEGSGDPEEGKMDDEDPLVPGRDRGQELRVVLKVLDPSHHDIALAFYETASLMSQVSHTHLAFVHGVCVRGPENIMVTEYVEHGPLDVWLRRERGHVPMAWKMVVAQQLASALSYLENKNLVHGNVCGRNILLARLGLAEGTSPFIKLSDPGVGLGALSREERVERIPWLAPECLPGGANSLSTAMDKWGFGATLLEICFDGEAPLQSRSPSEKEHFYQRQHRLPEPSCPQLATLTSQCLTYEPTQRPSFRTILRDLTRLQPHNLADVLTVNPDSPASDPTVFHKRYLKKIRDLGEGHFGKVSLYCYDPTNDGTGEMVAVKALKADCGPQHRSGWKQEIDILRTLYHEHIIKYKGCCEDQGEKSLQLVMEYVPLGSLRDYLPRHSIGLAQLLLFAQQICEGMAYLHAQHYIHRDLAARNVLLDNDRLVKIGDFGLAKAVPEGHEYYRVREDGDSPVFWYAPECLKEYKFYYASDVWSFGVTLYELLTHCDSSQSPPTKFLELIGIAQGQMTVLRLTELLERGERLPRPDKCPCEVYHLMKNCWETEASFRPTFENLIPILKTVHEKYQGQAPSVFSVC

- Competition % (TYK2): 93.8%
- inhibition at 10 µM (CDC2): 93.4%
- inhibition at 10 µM (IRE1): 91.8%
- inhibition at 10 µM (MAP3K5): 86%
- inhibition at 10 µM (IKKe): 89.7%
- inhibition at 10 µM (PAK4): 94.2%
- inhibition at 10 µM (BIKE): 92.9%
Compound: CS(=O)(=O)Nc1ccccc1Nc1nc(Nc2cccc(OCCN)c2)ncc1Cl [CZC31326, N-(2-(2-(3-(2-aminoethoxy)phenylamino)-5-chloropyrimidin-4-ylamino)phenyl)methanesulfonamide]
